The record followed here is ChEMBL document CHEMBL5500346, “Targeting EGFR degradation by autophagosome degraders” (Eur J Med Chem, 2024).

Active and inactive are the calls of the source. Unless noted, the calls are words filed in the database; no cut-off is given here.

Series [1] concerns A549. Nature of the series: Antiproliferative activity against human A549 cells incubated for 72 hrs by CCK8 assay. The class given is functional, cell-based. The settings on record: A549, 72 h. Background: Formazan colour is commonly taken as a measure of viable cells.
Series [2] relates to HCC827. In words: Antiproliferative activity against human HCC827 cells incubated for 72 hrs by CCK8 assay. In kind it is functional, cell-based. The settings on record: HCC827, 72 h.
Series [3] deals with PC-9. In words: Antiproliferative activity against human PC-9 cells incubated for 72 hrs by CCK8 assay. The class given is functional, cell-based. The settings on record: PC-9, 72 h.
The test system of series [4] is NCI-H3255. In words: Antiproliferative activity against human NCI-H3255 cells incubated for 72 hrs by CCK8 assay. The class given is functional, cell-based. Particulars: NCI-H3255, 72 h.
The subject of series [5] is NCI-H1975. Nature of the series: Antiproliferative activity against human NCI-H1975 cells incubated for 72 hrs by CCK8 assay. In kind it is functional, cell-based. Particulars: NCI-H1975, 72 h.
Series [6] has as its system L02. Nature of the series: Antiproliferative activity against human HL7702 cells incubated for 72 hrs by CCK8 assay. In kind it is toxicity, cell-based. The settings on record: l02, 72 h.
Series [7] concerns the target T1, Microtubule-associated protein 1 light chain 3 beta/Epidermal growth factor receptor (Homo sapiens, UniProt P00533+Q9GZQ8). In words: ATTEC activity at LC3B/EGFR in human HCC827 cells assessed as protein degradation by immunoblot analysis. In kind it is cell-based.
Series [8] addresses T1, Microtubule-associated protein 1 light chain 3 beta/Epidermal growth factor receptor. In words: Binding affinity to biotinylated LC3B/EGFR in human HCC827 cells BLI assay. The class given is cell-based.
For series [9] the target is unchanged. In words: Binding affinity to biotinylated LC3B/EGFR in human HCC827 cells assessed as dissociation constant BLI assay. The class given is cell-based.
For series [10] the target is unchanged. In words: ATTEC activity at LC3B/EGFR in human HCC827 cells assessed as increase in density of lysosomes incubated for 4 hrs by LysoTracker Red staining based analysis. In kind it is cell-based.

Turning to `COc1cc2ncnc(Nc3ccc(F)c(Cl)c3)c2cc1OCCOCCNC(=O)COc1c(Br)cc(/C=C2\C(=O)Nc3ccccc32)cc1Br`, the IC50 in series [1] is more than 10 µM; in series [2], 1.16 µM; in series [3], 3.63 µM; in [4], 0.904 µM; in series [5] it was more than 10 µM. Also, in series [6], the Activity entry is on record as “Non-Toxic”. For the same compound, the DC50 in [7] is 4.38 µM. Moreover, the result in series [8] and in series [10] was Active. Moreover, the equilibrium dissociation constant (Kd) in series [9] turned out to be 2.2 µM.

Usually IC50 stands for the midpoint of a concentration-inhibition curve. Read a high IC50 as a need for much substance. The DC50 is the concentration at which degradation of the target reaches its halfway point. Broadly, the Kd is the constant that tells how readily two partners part at equilibrium.
